pIC50: −log10 of the molar value.

In general, pIC50 refers to −log10 of the IC50, conventionally taken in molar units.

Sequence of Recombinant human factor D (P00746 26-253): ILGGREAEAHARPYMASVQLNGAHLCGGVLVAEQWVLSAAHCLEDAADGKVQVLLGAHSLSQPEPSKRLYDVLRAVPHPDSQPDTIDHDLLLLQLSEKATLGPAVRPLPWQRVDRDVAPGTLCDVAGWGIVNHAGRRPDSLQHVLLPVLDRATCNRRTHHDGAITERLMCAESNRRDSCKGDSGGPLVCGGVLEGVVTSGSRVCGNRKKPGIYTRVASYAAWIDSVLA

This assay concerns the target Recombinant human factor D (Homo sapiens (Human), UniProt P00746). The assay is described as follows: Human Complement Factor D Assay: Method 1. The following applies: 10 nM recombinant human factor D, substrate Z-Lys-thiobenzyl, fluorescence readout, read-out: IC50 Factor D inhibition. It is filed as biochemical. On the procedure: Human Complement Factor D Assay: Method 1
Recombinant human factor D (expressed in E. coli and purified using standard methods) at 10 nM concentration is incubated with test compound at various concentrations for 1 hour at room temperature in 0.1 M Hepes buffer, pH 7.5, containing 1 mM MgCl2, 1 M NaCl and 0.05% CHAPS. A synthetic substrate Z-Lys-thiobenzyl and 2,4-dinitrobenzenesulfonyl-fluoresceine are added to final concentrations of 200 μM and 25 μM, respectively. The increase in fluorescence is recorded at excitation of 485 nm and emission at 535 nm in a microplate spectrofluorimeter. IC50 values are calculated from percentage of inhibition of complement factor D-activity as a function of test compound concentration.
Factor D Inhibition Data Using Method 1 to Determine the IC50s.
On to `CO[C@H]1[C@@H](C(=O)NCC(F)=C(C)C)N(C(=O)Cn2nc(C(N)=O)c3ccncc32)C[C@@H]1F` [Example 5, 1-{2-[(2S,3S,4S)-4-Fluoro-2-(2-fluoro-3-methyl-but-2-enylcarbamoyl)-3-methoxy-pyrrolidin-1-yl]-2-oxo-ethyl}-1H-pyrazolo[3,4-c]pyridine-3-carboxylic acid amide], for which the pIC50 was 6.60.
With `CC(C)=C(F)C(C)NC(=O)[C@@H]1C[C@H]2C[C@H]2N1C(=O)Cn1nc(C(N)=O)c2ccccc21` (stereo partly drawn) [Example 19, 1-{2-[(1R,3S,5R)-3-(2-Fluoro-1,3-dimethyl-but-2-enylcarbamoyl)-2-aza-bicyclo[3.1.0]hex-2-yl]-2-oxo-ethyl}-1H-indazole-3-carboxylic acid amide] the figure was 8.15; with `NC(=O)c1nn(CC(=O)N2[C@@H]3C[C@@H]3C[C@H]2C(=O)NC/C(F)=C/C(F)(F)F)c2ccccc12` [Example 20, 1-(2-oxo-2-((1R,3S,5R)-3-(((Z)-2,4,4,4-tetrafluorobut-2-en-1-yl)carbamoyl)-2-azabicyclo[3.1.0]hexan-2-yl)ethyl)-1H-indazole-3-carboxamide], 7.05.
In the case of `CC(C)=C(F)CNC(=O)[C@@H]1C[C@H]2C[C@H]2N1C(=O)Cn1nc(C(N)=O)c2ccc(Cl)cc21` [Example 1, 6-Chloro-1-{2-[(1R,3S,5R)-3-(2-fluoro-3-methyl-but-2-enylcarbamoyl)-2-aza-bicyclo[3.1.0]hex-2-yl]-2-oxo-ethyl}-1H-indazole-3-carboxylic acid amide], the pIC50 was 7.48.
On to `NC(=O)c1nn(CC(=O)N2[C@@H]3C[C@@H]3C[C@H]2C(=O)NCC(F)=C2CCCC2)c2ccccc12` [Example 17, 1-{2-[(1R,3S,5R)-3-(2-Cyclopentylidene-2-fluoro-ethylcarbamoyl)-2-aza-bicyclo[3.1.0]hex-2-yl]-2-oxo-ethyl}-1H-indazole-3-carboxylic acid amide], for which the negative logarithm of the IC50 (pIC50) was 6.89.
With `CC(C)=C(F)CNC(=O)[C@@H]1C[C@@]2(CO)C[C@H]2N1C(=O)Cn1nc(C(N)=O)c2ccccc21` [Example 6, 1-{2-[(1R,3S,5S)-3-(2-Fluoro-3-methyl-but-2-enylcarbamoyl)-5-hydroxymethyl-2-aza-bicyclo[3.1.0]hex-2-yl]-2-oxo-ethyl}-1H-indazole-3-carboxylic acid amide] the figure was 7.00.
With `[2H]C([2H])([2H])C(=C(F)CNC(=O)[C@@H]1C[C@H]2C[C@H]2N1C(=O)Cn1nc(C(N)=O)c2ccccc21)C([2H])([2H])[2H]` [Example 18, 1-{2-[(1R,3S,5R)-3-(2-Fluoro-3-di-(trideutero-methyl)-allylcarbamoyl)-2-aza-bicyclo[3.1.0]hex-2-yl]-2-oxo-ethyl}-1H-indazole-3-carboxylic acid amide] the figure was 7.30; with `CC(C)=C(F)CNC(=O)[C@@H]1C[C@H]2C[C@H]2N1C(=O)Cn1nc(C(N)=O)c2cc(C)ncc21` [Example 12, 1-{2-[(1R,3S,5R)-3-(2-Fluoro-3-methyl-but-2-enylcarbamoyl)-2-aza-bicyclo[3.1.0]hex-2-yl]-2-oxo-ethyl}-5-methyl-1H-pyrazolo[3,4-c]pyridine-3-carboxylic acid amide], 7.13; with `CC(C)=C(F)CNC(=O)[C@@H]1C[C@H]2C[C@H]2N1C(=O)Cn1nc(C(N)=O)c2ccncc21` [Example 10, 1-{2-[(1R,3S,5R)-3-(2-Fluoro-3-methyl-but-2-enylcarbamoyl)-2-aza-bicyclo[3.1.0]hex-2-yl]-2-oxo-ethyl}-1H-pyrazolo[3,4-c]pyridine-3-carboxylic acid amide], 7.11.
With `CC(C)=C(F)[C@@H](C)NC(=O)[C@@H]1C[C@H]2C[C@H]2N1C(=O)Cn1nc(C(N)=O)c2ccccc21` [Example 22, 1-(2-((1R,3S,5R)-3-((R)-3-fluoro-4-methylpent-3-en-2-ylcarbamoyl)-2-azabicyclo[3.1.0]hexan-2-yl)-2-oxoethyl)-1H-indazole-3-carboxamide] the figure was 8.22.
On to `CCc1cc2c(C(N)=O)nn(CC(=O)N3[C@@H]4C[C@@H]4C[C@H]3C(=O)NCC(F)=C(C)C)c2cn1` [Example 15, 5-Ethyl-1-{2-[(1R,3S,5R)-3-(2-fluoro-3-methyl-but-2-enylcarbamoyl)-2-aza-bicyclo[3.1.0]hex-2-yl]-2-oxo-ethyl}-1H-pyrazolo[3,4-c]pyridine-3-carboxylic acid amide], for which the pIC50 is 7.37.
For `CC(C)=C(F)CNC(=O)[C@@H]1C[C@H]2C[C@H]2N1C(=O)Cn1nc(C(N)=O)c2ccnc(C)c21` [Example 14, 1-{2-[(1R,3S,5R)-3-(2-Fluoro-3-methyl-but-2-enylcarbamoyl)-2-aza-bicyclo[3.1.0]hex-2-yl]-2-oxo-ethyl}-7-methyl-1H-pyrazolo[3,4-c]pyridine-3-carboxylic acid amide], the negative logarithm of the IC50 (pIC50) is 7.20.
With `CC(C)=C(F)CNC(=O)[C@@H]1C[C@H]2C[C@H]2N1C(=O)Cn1nc(C(N)=O)c2cc(C)nc(C)c21` [Example 9, 1-{2-[(1R,3S,5R)-3-(2-Fluoro-3-methyl-but-2-enylcarbamoyl)-2-aza-bicyclo[3.1.0]hex-2-yl]-2-oxo-ethyl}-5,7-dimethyl-1H-pyrazolo[3,4-c]pyridine-3-carboxylic acid amide] the figure was 6.45; with `CC(C)=C(F)CNC(=O)[C@@H]1C[C@@H](F)CN1C(=O)Cn1nc(C(N)=O)c2ccccc21` [Example 7, 1-{2-[(2S,4R)-4-Fluoro-2-(2-fluoro-3-methyl-but-2-enylcarbamoyl)-pyrrolidin-1-yl]-2-oxo-ethyl}-1H-indazole-3-carboxylic acid amide], 7.25.
With `CC(C)=C(F)CNC(=O)[C@@H]1C[C@H]2C[C@H]2N1C(=O)Cn1nc(C(N)=O)c2ccc(C)cc21` [Example 4, 1-{2-[(1R,3S,5R)-3-(2-Fluoro-3-methyl-but-2-enylcarbamoyl)-2-aza-bicyclo[3.1.0]hex-2-yl]-2-oxo-ethyl}-6-methyl-1H-indazole-3-carboxylic acid amide] the figure was 6.35; with `CC(C)=C(F)CNC(=O)[C@@H]1C[C@@H](F)CN1C(=O)Cn1nc(C(N)=O)c2ccncc21` [Example 3, 1-{2-[(2S,4R)-4-Fluoro-2-(2-fluoro-3-methyl-but-2-enylcarbamoyl)-pyrrolidin-1-yl]-2-oxo-ethyl}-1H-pyrazolo[3,4-c]pyridine-3-carboxylic acid amide], 6.59; with `CC(=O)c1nn(CC(=O)N2[C@@H]3C[C@@H]3C[C@H]2C(=O)NCC(F)=C(C)C)c2cnccc12` [Example 13, (1R,3S,5R)-2-[2-(3-Acetyl-pyrazolo[3,4-c]pyridin-1-yl)-acetyl]-2-aza-bicyclo[3.1.0]hexane-3-carboxylic acid (2-fluoro-3-methyl-but-2-enyl)-amide], 7.43.
With `CO[C@H]1[C@@H](C(=O)NCC(F)=C(C)C)N(C(=O)Cn2nc(C(N)=O)c3ccccc32)C[C@@H]1F` [Example 8, 1-{2-[(2S,3S,4S)-4-Fluoro-2-(2-fluoro-3-methyl-but-2-enylcarbamoyl)-3-methoxy-pyrrolidin-1-yl]-2-oxo-ethyl}-1H-indazole-3-carboxylic acid amide] the figure was 7.23.
For `CC(=O)c1nn(CC(=O)N2[C@@H]3C[C@@H]3C[C@H]2C(=O)NCC(F)=C(C)C)c2ccccc12` [Example 11, (1R,3S,5R)-2-[2-(3-Acetyl-indazol-1-yl)-acetyl]-2-aza-bicyclo[3.1.0]hexane-3-carboxylic acid (2-fluoro-3-methyl-but-2-enyl)-amide], the negative logarithm of the IC50 (pIC50) is 7.72.
With `CC(=O)c1nn(CC(=O)N2[C@@H]3C[C@@H]3C[C@H]2C(=O)NCC(F)=C(C)C)c2ccc(OCc3ncccn3)cc12` [Example 16, (1R,3S,5R)-2-{2-[3-Acetyl-5-(pyrimidin-2-ylmethoxy)-indazol-1-yl]-acetyl}-2-aza-bicyclo[3.1.0]hexane-3-carboxylic acid (2-fluoro-3-methyl-but-2-enyl)-amide], the pIC50 is 8.15.
With `CC(C)=C(F)CNC(=O)[C@@H]1C[C@H]2C[C@H]2N1C(=O)Cn1nc(C(N)=O)c2ccccc21` [Example 2, 1-{2-[(1R,3S,5R)-3-(2-Fluoro-3-methyl-but-2-enylcarbamoyl)-2-aza-bicyclo[3.1.0]hex-2-yl]-2-oxo-thyl}-1H-indazole-3-carboxylic acid amide] the figure was 7.46.
With `CC(C)=C(F)[C@H](C)NC(=O)[C@@H]1C[C@H]2C[C@H]2N1C(=O)Cn1nc(C(N)=O)c2ccccc21` [Example 21, 1-(2-((1R,3S,5R)-3-((S)-3-fluoro-4-methylpent-3-en-2-ylcarbamoyl)-2-azabicyclo[3.1.0]hexan-2-yl)-2-oxoethyl)-1H-indazole-3-carboxamide] the figure was 5.74.

Values taken from patent publication US9464081B2, “Pyrrolidine derivatives and their use as complement pathway modulators” (priority 2012, dated 2016).
